Results on five molecules are retold here after patent publication US12416036B2, “High-throughput enzyme assay for screening activity of acyltransferases” (CORNELL UNIVERSITY, priority 2021, dated 2025).

The target in assay [1] is T1, ZDHHC7 (Mus musculus, UniProt Q91WU6).
T1 sequence (Q91WU6 1-308): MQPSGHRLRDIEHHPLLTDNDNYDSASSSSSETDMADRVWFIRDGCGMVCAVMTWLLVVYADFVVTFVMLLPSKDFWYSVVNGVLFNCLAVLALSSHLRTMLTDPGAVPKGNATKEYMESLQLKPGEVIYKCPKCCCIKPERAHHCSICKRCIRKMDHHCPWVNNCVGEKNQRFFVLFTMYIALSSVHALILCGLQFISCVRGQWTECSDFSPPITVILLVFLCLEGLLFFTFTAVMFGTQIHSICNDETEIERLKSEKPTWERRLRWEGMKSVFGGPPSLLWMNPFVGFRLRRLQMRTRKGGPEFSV
Briefly: Enzyme kinetics of ZDHHC7 on the FAM-KRas4a peptide by HPLC. Details: myc (vector pblueBac4.5-myc3His10) (C); His (vector pblueBac4.5-myc3His10) (C); made in house; host or cells: Sf9 insect cells (baculovirus). Format: biochemical. The conditions noted are these: ZDHHC7, 60 μM palmitoyl-CoA.
Method: ZDHHC-catalyzed S-palmitoylation was detected by LC-MS. To facilitate detection by UV, two tryptophan residues were added to the C-terminus of the peptide. In a second peptide, the 5-FAM group was attached to permit detection in the acyl-cLIP assay.
In solutions containing 0.1% DMM, 50 mM MES pH 6.4, 0.5 mM TCEP, 60 μM palmitoyl-CoA, and 0.15 μM DHHC7, FAM-KRas peptide was added to final concentration ranging from 31.25 μM to 2000 μM. After 10 minutes of incubation, the reaction was quenched with 0.1% acetonitrile. After centrifuging at 17 000 g for 10 minutes, the supernatant was loaded to Shimadzu HPLC LC20 Ad with Kinetex 5u EVO C18 100 Å column (100 mm×4.60 mm, 5 μm) for UV detection at 260 nm. Using HPLC-grade water with 0.1% trifluoroacetic acid as Buffer A and HPLC-grade acetonitrile with 0.1% trifluoroacetic acid, at a constant rate of 0.5 mL/min, the linear gradient for elution was 0% Buffer B (0-2 min), 20% Buffer B (2-4 min), 40% Buffer B (4-17 min), 100% Buffer B (17-19 min), 100% Buffer B (19-24 min), 0% Buffer B (24-25 min), and 0% Buffer B (25-30 min). Product formed was quantified using the ratio of substrate and product peak areas. After the detection, Km and kcat values were measured by GraphPad Prism software.

The target in assay [2] is T2, ZDHHC3 (Mus musculus, UniProt Q8R173).
T2 construct: FLAG (C); His (C); made in house; host or cells: Sf9 insect cells (baculovirus)
T2 sequence (Q8R173 1-299): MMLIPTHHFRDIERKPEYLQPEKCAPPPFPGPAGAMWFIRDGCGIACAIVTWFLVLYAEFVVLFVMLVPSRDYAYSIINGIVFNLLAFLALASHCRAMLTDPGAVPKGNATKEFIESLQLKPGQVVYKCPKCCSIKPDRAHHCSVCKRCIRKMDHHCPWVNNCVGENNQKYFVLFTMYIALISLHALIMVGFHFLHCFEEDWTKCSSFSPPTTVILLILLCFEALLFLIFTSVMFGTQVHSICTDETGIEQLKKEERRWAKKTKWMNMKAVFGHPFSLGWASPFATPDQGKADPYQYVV
Briefly: ZDHHC3 Acyl-cLIP assay (end-point method). The class given is biochemical. To be noted: for inhibition of ZDHHC3 compared with ZDHHC7 (Acyl-cLIP): comparison of Acyl-cLIP IC50 values. How it is done: The DHHC3 IC50 value for 2-BP and MY-D-4 were approximately 250 and 50 μM, respectively (Table 1).
ZDHHC3 was assayed using the similar protocol at a final concentration of 0.6 μM.
The rest of the experiment was done identical to the ZDHHC7 assay.
(§1) Purification of ZDHHC enzymes.

The target of assay [3] is T3, ZDHHC3 (Homo sapiens, UniProt Q9NYG2).
T3 construct: HA; expressed in transfected cells; host or cells: HEK 293T cells
T3 sequence (Q9NYG2 1-299): T2 sequence (Q8R173 1-299) with D11N, A25V, F29Y, A33V, A35T, V68I, A74V, A224G
Briefly: STAT3 fatty acylation induced by ZDHHC3 in HEK293T cells (Alk14 labeling, in-gel fluorescence). The class given is cell-based. To be noted: for effect on ZDHHC3-catalyzed STAT3 acylation level: 25 μM, 6-hour treatment. From the text: Next experiments also tested the four compounds for ZDHHC3 inhibition in HEK293T cells that over-express both ZDHHC3 and STAT3. […] Thus, the results from the Acyl-cLIP assay can be used to predict cellular responses.

Assay [4] addresses T1, ZDHHC7. Briefly: ZDHHC7 Acyl-cLIP assay (end-point method).
Method: Because these inhibitors may form irreversible covalent bonds with ZDHHCs, the order of adding the reagents were changed and included a 30-minute pre-incubation time to permit the bond to form prior to the addition of the FAM peptide and palmitoyl-CoA to initiate the reaction.
n-Dodecyl β-D-maltoside (DDM, 1.3 mg) was dissolved in 1 mL of water by vigorous vortexing. Preparing for 19 samples, “Buffer A” was prepared as follows: In a 1.5 mL Eppendorf tube with the DDM solution (190 μL), MES buffer pH 6.5 (stock concentration 500 mM, 38 μL), TCEP (stock concentration 30 mM, 6.33 μL), and ZDHHC7 (stock concentration 6 μM, 19 μL) were added. For the same 19 samples, “Buffer B” was prepared as followed. In a 1.5 mL Eppendorf tube with the DDM solution (76 μL), palmitoyl-CoA (stock concentration 1.5 mM, 12.6 μL) and FAM-Kras4a substrate (stock concentration 0.5 mM, 19 μL) was added. To each well of a black 384 well plate (Corning 3575), 1 μL of inhibitor (concentration ranging from 93.75 μM to 6000 μM) was added. First, 13.3 μL of “Buffer A” was added to each well. After a 30-minute pre-incubation, 5.66 μL of “Buffer B” was added. The final concentration of the reaction mixture was 50 mM MES pH 6.4, 0.5 mM TCEP, 40 μM palmitoyl-CoA, 0.3 μM ZDHHC7, and 25 μM FAM-KRas4a substrate in 0.1% DDM solution. After 30 minutes, the reaction was quenched by adding 4 μL of 6 mM non-FAM KRas-4a substrate. The fluorescence anisotropy was measured by citation 5 with “8040561 Filter BLK ASBY GRN FP VSBL K” cube at excitation of 485/20 nm, emission of 528/20 nm, and normal read speed mode. The measurements were done in 3 replicates at each inhibitor concentration.
The target of assay [5] is T4, ZDHHC7 (Homo sapiens, UniProt Q9NXF8).
T4 sequence (Q9NXF8 1-308): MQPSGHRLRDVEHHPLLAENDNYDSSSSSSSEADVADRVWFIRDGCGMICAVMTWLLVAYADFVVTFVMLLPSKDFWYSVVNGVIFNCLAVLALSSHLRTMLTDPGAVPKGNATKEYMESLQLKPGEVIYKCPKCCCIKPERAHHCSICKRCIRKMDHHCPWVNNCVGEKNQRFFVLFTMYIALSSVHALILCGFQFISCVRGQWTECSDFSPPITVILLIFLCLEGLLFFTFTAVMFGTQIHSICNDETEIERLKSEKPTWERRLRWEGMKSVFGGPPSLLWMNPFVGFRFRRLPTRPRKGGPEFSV
Briefly: STAT3 fatty acylation induced by ZDHHC7 in HEK293T cells (Alk14 labeling, in-gel fluorescence). To be noted: for STAT3 fatty acylation (ZDHHC7): 50 μM inhibitor, 6-hour treatment; for in-cell inhibition of ZDHHC7 (overall): HEK293T cells, summary statement; for STAT3 acylation (ZDHHC7): 12- and 24-hour inhibitor treatment.
Method: Cells were treated with 50 μM of the inhibitors for the indicated hours and labeled with 50 μM of Alk-14 for 6 hours. […] Cells were treated with 25 μM of inhibitors for 16 hours and labeled with 50 μM of Alk-14 for 6 hours. Relative FL/Protein for both experiments was calculated by dividing fluorescence signal by the protein level from the corresponding “CBB” lane. The fatty acylation level of DMSO with Alk14 was set to 1.
Flag-tagged STAT3 and HA-tagged ZDHHC7 were expressed in HEK293T cells. The cells were incubated with the four inhibitors. During the last six hours of the incubation, 50 μM of Alk14 probe was added to metabolically label palmitoylated STAT3. After collecting and lysing the cells, STAT3 was immunoprecipitated and the levels of acylation were determined by in-gel fluorescence after click chemistry.
HEK 293T cells were transfected with STAT3-Flag and ZDHHC3-HA or ZDHHC7-HA for 36 h, and treated with 50 μM 2-BP, MY-D-2, MY-D-3, or MY-D-4 for the indicated time with 6 h Alk14 labeling (50 μM). Cells were collected and lysed in the 1% NP-40 lysis buffer (25 mM Tris-HCl pH 8.0, 10% glycerol, 150 mM NaCl, 1% Nonidet P-40) with protease inhibitor cocktail (P8340, Sigma). STAT3-Flag was purified by anti-Flag agarose beads and resuspended in 50 μL IP wash buffer (25 mM Tris-HCl pH 8.0, 150 mM NaCl, 0.2% Nonidet P-40). Click chemistry was done by adding a mixture of 3 μL of 2 mM TAMRA azide (47130, Lumiprobe), 3.6 μL of 10 mM tris[(1-benzyl-1H-1,2,3-triazol-4-yl)methyl]amine (TBTA) (T2993, TCI chemicals), 3 μL of 40 mM CuSO4, 3 μL of 40 mM tris(2-carboxyethyl)phosphine HCl (TCEP hydrochloride) (580560, Millipore) to each sample. The mixtures were mixed by vortex and incubated in dark at room temperature for 30 min. 20 μL of the 6× loading buffer was added into each reaction mixture and the mixture was boiled at 95° C. for 10 min to denature. The mixture was separated by SDS-PAGE gel. The gel was scanned by the Typhoon 7000 Variable Mode Imager (GE Healthcare Life Sciences) in the rhodamine channel to visualize the fatty acylation of STAT3 and was stained with Coomassie Brilliant Blue (B7920, Sigma) to check for protein loading. Relative FL/Protein quantification was done by ImageJ.

Assay [6] concerns the target T1, ZDHHC7. Briefly: ZDHHC7-myrGia PAT assay with [3H]palmitoyl-CoA. Format: biochemical. Details: myc (vector pblueBac4.5-myc3His10) (C); His (vector pblueBac4.5-myc3His10) (C); made in house; host or cells: Sf9 insect cells (baculovirus). To be noted: [3H]palmitoyl-CoA and myr-Gia substrate; 10 min pre-incubation at 30° C. How it is done:
To further evaluate the potency of the inhibitors, the four compounds were tested using ZDHHC7-catalyzed palmitoylation of myristoylated (myr) Gi protein a subunit (Gia) using an established in vitro assay with [^3H]palmitoyl-CoA. Myr-Gia was previously reported as a substrate for ZDHHC7 (R. Tsutsumi et al., Mol. Cell. Biol., 29, 435-447, 2009). ZDHHC7 and the inhibitors were pre-incubated at 30° C. for 10 min, followed by the addition of [^3H]pal-mitoyl-CoA and myr-Gia. The acylation reaction was allowed to proceed at 30° C. for 10 min, the reaction was quenched, and the proteins resolved by SDS-PAGE. The [^3H]-palmitoylated myrGia band was excised from the gel and the level of [^3H]palmitoylation was measured by scintillation counting. […] Additionally, MY-D-2 and MY-D-3 inhibited ZDHHC7 weaker than 2-BP.
as §1
ZDHHC7-myrGia PAT Assay. Rat Myr-Gia was generated by transforming C-terminally His-tagged Gia in JM101 competent cells containing the N-myristoyltransferase (NMT) plasmid. Following inoculation and induction of the bacterial cells, myr-Gia was purified from total cell lysates using Ni-NTA resin. […] The PAT reaction was then initiated by mixing the enzyme:inhibitor solution with [^3H]-palmitoyl CoA (1 μM) and myr-Gia (1 μM). The reaction was allowed to proceed for 10 min at 30° C. and then stopped with the addition of sample buffer containing 10 mM TCEP. Proteins were resolved on a Coomassie-stained gel, and the myr-Gia band was excised and dissolved in Soluene (Perkin-Elmer). The excised bands were heated at 37° C. overnight and then combined with Ultima Gold scintillation fluid (Perkin-Elmer). Radioactivity was measured by scintillation counting. IC50 values for the inhibitors were calculated by plotting the inhibition curves in GraphPad Prism.

The target of assay [7] is T2, ZDHHC3. Briefly: ZDHHC-HRas PAT assay, ZDHHC3. The class given is biochemical. The conditions noted are these: fixed inhibitor concentration of 1 μM; order MY-D-4, 2-BP, MY-D-2, MY-D-3. How it is done: (§2) The results of the Acyl-cLIP assay were also compared with a conventional assay using HRas protein. Next experiments screened at a fixed inhibitor concentration of 1 μM against ZDHHC3 and ZDHHC7 using [^3H]palmitoyl-CoA and HRas protein as substrates. The levels of [^3H]palmitoylated HRas were detected.
as §1
(§3) ZDHHC-HRas PAT Assay. His-HRas was purified from total cell lysates of baculovirus-infected Sf9 cells using Ni-NTA resin.

Assay [8] addresses T1, ZDHHC7. Description: ZDHHC-HRas PAT assay, ZDHHC7. Format: biochemical. Details: myc (vector pblueBac4.5-myc3His10) (C); His (vector pblueBac4.5-myc3His10) (C); made in house; host or cells: Sf9 insect cells (baculovirus). The conditions noted are these: fixed inhibitor concentration of 1 μM; order MY-D-4, 2-BP, MY-D-2, MY-D-3. How it is done:
as §2, §1, §3

[9] abbreviates: 30-minute pre-incubation, FAM-KRas4a peptide substrate.
Where [10] appears, read: IC50 (μM) ZDHHC7 (Acyl-cLIP), 30-minute pre-incubation with inhibitor, FAM-KRas4a peptide substrate.
The mark [11] stands for this setting: IC50 ZDHHC7 (Acyl-cLIP) without the pre-incubation, without pre-incubation.

Positions count from the first letter of the chain named. Entries after “also recorded” stand apart in the source; their conditions may differ. Like-named read-outs stand apart in the source and are kept apart here. Residues, ends and D or L forms follow the SMILES beside them. *: point of attachment. 5FAM = O=C1OC2(c3ccc(O)cc3Oc3cc(O)ccc32)c2ccc(C(=O)*)cc21

With `CC[C@H](C)[C@H](NC(=O)c1ccc2c(c1)C(=O)OC21c2ccc(O)cc2Oc2cc(O)ccc21)C(=O)N[C@@H](CO)C(=O)N[C@@H](CCCCN)C(=O)N[C@@H](CCC(=O)O)C(=O)N[C@@H](CCC(=O)O)C(=O)N[C@@H](CCCCN)C(=O)N[C@H](C(=O)N1CCC[C@H]1C(=O)NCC(=O)N[C@@H](CS)C(=O)N[C@H](C(=O)N[C@@H](CCCCN)C(=O)N[C@H](C(=O)N[C@@H](CCCCN)C(=O)N[C@@H](CCCCN)C(=O)O)[C@@H](C)CC)C(C)C)[C@@H](C)O` [FAM-KRas4a peptide] (5FAM-ISKEEKTPGCVKIKK-OH), the Km in assay [1] was 184 µM.
Turning to `CCCCCCCCCCCCCCC(Br)C(=O)Nc1ccccc1` [MY-D-3, 2-bromo-N-phenylhexadecanamide], in assay [2] (setting [9]), the “IC50 (μM) ZDHHC3 (Acyl-cLIP)” value was “No”. The “effect on ZDHHC3-catalyzed STAT3 acylation level” value in assay [3] is on record as “did not alter”. For the same molecule, the IC50 is more than 150 µM in assay [4] (setting [10]) and 78 µM in assay [6]. The “inhibition of ZDHHC7 (Acyl-cLIP) at highest concentration” value in assay [4] (at 150 μM) is listed as “no inhibition”. In assay [5] (HEK293T), the “STAT3 fatty acylation (ZDHHC7)” value is recorded as “had no effect”. In addition, the “in-cell inhibition of ZDHHC7 (overall)” value in assay [5] was “no inhibition”.
As for `CCCCCCCCCCCCCCC(Br)C(=O)SCCNC(C)=O` [MY-D-4, S-(2-acetamidoethyl) 2-bromohexadecanethioate], the half-maximal inhibitory concentration (IC50) in assay [2] was approximately 50 µM; in assay [4] (setting [10]), 4.4 µM; in assay [4] (setting [11]), 6.3 µM; in assay [5], 1 to 5 µM; in assay [6], 1.6 µM. Further, the “inhibition of ZDHHC3 compared with ZDHHC7 (Acyl-cLIP)” value in assay [2] is “inhibited ZDHHC3 much less than ZDHHC7”. The “inhibition of ZDHHC3, levels of [3H]palmitoylated HRas” value in assay [7] was “strongest inhibition among the four compounds”. In assay [3] (25 μM of inhibitors for 16 hours), the “inhibition of ZDHHC3 in living cells (FIG. 4B)” value is on record as “inhibits”. For the same molecule, in assay [5] (HEK293T), the “STAT3 fatty acylation (ZDHHC7)” value is reported as “significantly reduced”. Moreover, the “STAT3 acylation (ZDHHC7)” value in assay [5] (HEK293T) is given as “completely eliminated”. Also, the “in-cell inhibition of ZDHHC7 (overall)” value in assay [5] is given as “slightly weaker than or similar potency to 2-BP; also recorded: inhibits”. In assay [8], the “inhibition of ZDHHC7, levels of [3H]palmitoylated HRas” value was “strongest inhibition among the four compounds”.
For `CCCCCCCCCCCCCCC(Br)C(=O)OC` [MY-D-2, methyl 2-bromohexadecanoate], the “IC50 (μM) ZDHHC3 (Acyl-cLIP)” value in assay [2] (setting [9]) is reported as “No”. Also, the “effect on ZDHHC3-catalyzed STAT3 acylation level” value in assay [3] is listed as “only slightly affected”. Also, the IC50 in assay [4] (setting [10]) came out at 38 µM; in assay [4] (setting [11]), 75 µM; in assay [6], 29 µM. Also, the “STAT3 fatty acylation (ZDHHC7)” value in assay [5] (HEK293T) is “only slightly decreased”. Also, the “in-cell inhibition of ZDHHC7 (overall)” value in assay [5] was “only mild inhibition”.
For `CCCCCCCCCCCCCCC(Br)C(=O)O` (centres unmarked) [2-BP, 2-bromopalmitate, reference compound], the IC50 was more than 250 µM in assay [2] (setting [9]); 9 µM in assay [4] (read-out: IC50 (μM) ZDHHC7 (Acyl-cLIP), 30-minute pre-incubation with inhibitor, FAM-KRas4a peptide substrate); 12 µM in assay [4] (read-out: IC50 ZDHHC7 (Acyl-cLIP) without the pre-incubation, without pre-incubation); 16 µM in assay [6]. Besides, the “inhibition of ZDHHC3 compared with ZDHHC7 (Acyl-cLIP)” value in assay [2] was “inhibited ZDHHC3 much less than ZDHHC7”. Also, in assay [5] (25 μM inhibitor, HEK293T), the “time-dependent inhibition of STAT3 acylation (ZDHHC7)” value was “slightly more inhibitory effect than MY-D-4”. Also, the “STAT3 fatty acylation (ZDHHC7)” value in assay [5] (HEK293T) is recorded as “abolished”. Moreover, the “STAT3 acylation (ZDHHC7)” value in assay [5] (HEK293T) is “completely eliminated”.

In general, Km refers to the substrate concentration at which the rate is half of its maximum. What is called IC50 is the point on the concentration scale where inhibition reaches its midpoint.
